Test results reported in PubChem BioAssay (NCI).
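These data come from cells grown in 96-well plates and exposed to compound for 48 hours at five concentrations. At the GI50, growth is halved. Definition used: TGI = concentration required for complete inhibition of growth.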

Key:
Experiment in all cases: NCI anticancer screen, dose series, 48 h
786-0 renal = tested on: 786-0 renal
A498 renal = tested on: A498 renal
A549 NSCLC = tested on: A549 NSCLC
BT-549 breast = tested on: BT-549 breast
CAKI-1 renal = tested on: CAKI-1 renal
CCRF-CEM leukemia = tested on: CCRF-CEM leukemia
COLO 205 colon = tested on: COLO 205 colon
DU-145 prostate = tested on: DU-145 prostate
EKVX NSCLC = tested on: EKVX NSCLC
HCC-2998 colon = tested on: HCC-2998 colon
HCT-116 colon = tested on: HCT-116 colon
HCT-15 colon = tested on: HCT-15 colon
HL-60(TB) leukemia = tested on: HL-60(TB) leukemia
HOP-62 NSCLC = tested on: HOP-62 NSCLC
HOP-92 NSCLC = tested on: HOP-92 NSCLC
HS 578T breast = tested on: HS 578T breast
HT29 colon = tested on: HT29 colon
IGROV1 ovarian = tested on: IGROV1 ovarian
K-562 leukemia = tested on: K-562 leukemia
KM12 colon = tested on: KM12 colon
M14 melanoma = tested on: M14 melanoma
MALME-3M melanoma = tested on: MALME-3M melanoma
MCF7 breast = tested on: MCF7 breast
MDA-MB-231 breast = tested on: MDA-MB-231 breast
MDA-MB-435 = tested on: MDA-MB-435
MOLT-4 leukemia = tested on: MOLT-4 leukemia
NCI-H226 lung = tested on: NCI-H226 lung
NCI-H23 lung = tested on: NCI-H23 lung
NCI-H460 lung = tested on: NCI-H460 lung
NCI-H522 lung = tested on: NCI-H522 lung
NCI/ADR-RES ovarian = tested on: NCI/ADR-RES ovarian
OVCAR-3 ovarian = tested on: OVCAR-3 ovarian
OVCAR-4 ovarian = tested on: OVCAR-4 ovarian
OVCAR-8 ovarian = tested on: OVCAR-8 ovarian
PC-3 prostate = tested on: PC-3 prostate
RPMI-8226 leukemia = tested on: RPMI-8226 leukemia
SF-268 CNS = tested on: SF-268 CNS
SF-295 CNS = tested on: SF-295 CNS
SF-539 CNS = tested on: SF-539 CNS
SK-MEL-2 melanoma = tested on: SK-MEL-2 melanoma
SK-MEL-28 melanoma = tested on: SK-MEL-28 melanoma
SK-MEL-5 melanoma = tested on: SK-MEL-5 melanoma
SK-OV-3 ovarian = tested on: SK-OV-3 ovarian
SN12C renal = tested on: SN12C renal
SNB-75 CNS = tested on: SNB-75 CNS
SR leukemia = tested on: SR leukemia
SW-620 colon = tested on: SW-620 colon
T-47D breast = tested on: T-47D breast
TK-10 renal = tested on: TK-10 renal
U251 CNS = tested on: U251 CNS
UACC-257 melanoma = tested on: UACC-257 melanoma
UACC-62 melanoma = tested on: UACC-62 melanoma

**Q.** Which GI50 (786-0 renal) does the source give for `COc1cc2c(cc1OCCCCCn1c(-c3ccco3)nc3ccccc31)N=C[C@@H]1CCCN1C2=O` here?
**A.** Its GI50 is < 10 nM.

**Q.** And the TGI (786-0 renal)?
**A.** The TGI was 1300 nM.

**Q.** And the GI50 (A498 renal)?
**A.** The GI50 was < 10 nM.

**Q.** And the TGI (A498 renal)?
**A.** The TGI was < 15.6 nM.

**Q.** What about the GI50 (A549 NSCLC) of the same compound?
**A.** Its GI50 is < 10 nM.

**Q.** And the TGI (A549 NSCLC)?
**A.** The TGI was > 100000 nM.

**Q.** And the GI50 (BT-549 breast)?
**A.** The GI50 was < 10 nM.

**Q.** What about the TGI (BT-549 breast) of the same compound?
**A.** Its TGI is < 20.9 nM.

**Q.** What about the GI50 (CAKI-1 renal) of the same compound?
**A.** The GI50 was < 10 nM.

**Q.** And the TGI (CAKI-1 renal)?
**A.** Its TGI is 31.8 nM.

**Q.** And the GI50 (CCRF-CEM leukemia)?
**A.** Its GI50 is < 10 nM.

**Q.** And the TGI (CCRF-CEM leukemia)?
**A.** Its TGI is 90 nM.

**Q.** And the GI50 (COLO 205 colon)?
**A.** The GI50 was < 10 nM.

**Q.** And the TGI (COLO 205 colon)?
**A.** Its TGI is < 10 nM.

**Q.** What about the GI50 (DU-145 prostate) of the same compound?
**A.** The GI50 was < 15.2 nM.

**Q.** What about the GI50 (EKVX NSCLC) of the same compound?
**A.** The GI50 was < 11.5 nM.

**Q.** And the TGI (EKVX NSCLC)?
**A.** The TGI was 1590 nM.

**Q.** What about the GI50 (HCC-2998 colon) of the same compound?
**A.** The GI50 was < 10 nM.

**Q.** What about the TGI (HCC-2998 colon) of the same compound?
**A.** Its TGI is 19.3 nM.

**Q.** What about the GI50 (HCT-116 colon) of the same compound?
**A.** Its GI50 is < 10 nM.

**Q.** What about the TGI (HCT-116 colon) of the same compound?
**A.** The TGI was 16100 nM.

**Q.** What about the GI50 (HCT-15 colon) of the same compound?
**A.** Its GI50 is 45.2 nM.

**Q.** What about the TGI (HCT-15 colon) of the same compound?
**A.** Its TGI is 26400 nM.

**Q.** What about the GI50 (HL-60(TB) leukemia) of the same compound?
**A.** Its GI50 is 23 nM.

**Q.** And the TGI (HL-60(TB) leukemia)?
**A.** The TGI was 114 nM.

**Q.** And the GI50 (HOP-62 NSCLC)?
**A.** Its GI50 is < 10 nM.

**Q.** And the TGI (HOP-62 NSCLC)?
**A.** Its TGI is 1100 nM.

**Q.** And the GI50 (HOP-92 NSCLC)?
**A.** The GI50 was < 12.2 nM.

**Q.** What about the GI50 (HS 578T breast) of the same compound?
**A.** The GI50 was < 10 nM.

**Q.** What about the TGI (HS 578T breast) of the same compound?
**A.** Its TGI is < 34.9 nM.

**Q.** What about the GI50 (HT29 colon) of the same compound?
**A.** Its GI50 is < 10 nM.

**Q.** And the TGI (HT29 colon)?
**A.** Its TGI is > 100000 nM.

**Q.** What about the GI50 (IGROV1 ovarian) of the same compound?
**A.** The GI50 was < 10 nM.

**Q.** And the TGI (IGROV1 ovarian)?
**A.** The TGI was 13200 nM.

**Q.** What about the GI50 (K-562 leukemia) of the same compound?
**A.** Its GI50 is < 10 nM.

**Q.** What about the TGI (K-562 leukemia) of the same compound?
**A.** Its TGI is > 100000 nM.

**Q.** What about the GI50 (KM12 colon) of the same compound?
**A.** The GI50 was < 10 nM.

**Q.** And the GI50 (M14 melanoma)?
**A.** Its GI50 is < 10 nM.

**Q.** What about the TGI (M14 melanoma) of the same compound?
**A.** Its TGI is 23.6 nM.

**Q.** And the GI50 (MALME-3M melanoma)?
**A.** Its GI50 is < 10 nM.

**Q.** And the TGI (MALME-3M melanoma)?
**A.** Its TGI is < 10 nM.

**Q.** What about the GI50 (MCF7 breast) of the same compound?
**A.** The GI50 was < 10 nM.

**Q.** What about the TGI (MCF7 breast) of the same compound?
**A.** The TGI was 19000 nM.

**Q.** And the GI50 (MDA-MB-231 breast)?
**A.** Its GI50 is < 14.1 nM.

**Q.** And the TGI (MDA-MB-231 breast)?
**A.** Its TGI is 224 nM.

**Q.** And the GI50 (MDA-MB-435)?
**A.** Its GI50 is < 10 nM.

**Q.** What about the TGI (MDA-MB-435) of the same compound?
**A.** The TGI was < 10 nM.

**Q.** And the GI50 (MOLT-4 leukemia)?
**A.** The GI50 was < 10 nM.

**Q.** What about the GI50 (NCI-H226 lung) of the same compound?
**A.** The GI50 was < 10 nM.

**Q.** What about the TGI (NCI-H226 lung) of the same compound?
**A.** The TGI was < 13.6 nM.

**Q.** And the GI50 (NCI-H23 lung)?
**A.** Its GI50 is < 10 nM.

**Q.** And the TGI (NCI-H23 lung)?
**A.** Its TGI is < 10 nM.

**Q.** And the GI50 (NCI-H460 lung)?
**A.** Its GI50 is < 10 nM.

**Q.** And the TGI (NCI-H460 lung)?
**A.** Its TGI is 14300 nM.

**Q.** What about the GI50 (NCI-H522 lung) of the same compound?
**A.** Its GI50 is < 10 nM.

**Q.** And the GI50 (NCI/ADR-RES ovarian)?
**A.** The GI50 was 295 nM.

**Q.** What about the GI50 (OVCAR-3 ovarian) of the same compound?
**A.** Its GI50 is < 10 nM.

**Q.** And the TGI (OVCAR-3 ovarian)?
**A.** The TGI was < 10 nM.

**Q.** And the GI50 (OVCAR-4 ovarian)?
**A.** The GI50 was < 14 nM.

**Q.** And the TGI (OVCAR-4 ovarian)?
**A.** Its TGI is > 41400 nM.

**Q.** What about the GI50 (OVCAR-8 ovarian) of the same compound?
**A.** Its GI50 is < 10 nM.

**Q.** And the TGI (OVCAR-8 ovarian)?
**A.** The TGI was > 36800 nM.

**Q.** And the GI50 (PC-3 prostate)?
**A.** The GI50 was < 10 nM.

**Q.** And the TGI (PC-3 prostate)?
**A.** The TGI was > 100000 nM.

**Q.** And the GI50 (RPMI-8226 leukemia)?
**A.** The GI50 was < 10 nM.

**Q.** And the TGI (RPMI-8226 leukemia)?
**A.** Its TGI is < 30.9 nM.

**Q.** And the GI50 (SF-268 CNS)?
**A.** The GI50 was < 10 nM.

**Q.** What about the GI50 (SF-295 CNS) of the same compound?
**A.** Its GI50 is < 10 nM.

**Q.** And the TGI (SF-295 CNS)?
**A.** Its TGI is 22.7 nM.

**Q.** What about the GI50 (SF-539 CNS) of the same compound?
**A.** Its GI50 is < 10 nM.

**Q.** What about the TGI (SF-539 CNS) of the same compound?
**A.** The TGI was < 47.2 nM.

**Q.** And the GI50 (SK-MEL-2 melanoma)?
**A.** Its GI50 is < 14.7 nM.

**Q.** And the TGI (SK-MEL-2 melanoma)?
**A.** The TGI was 70 nM.

**Q.** And the GI50 (SK-MEL-28 melanoma)?
**A.** Its GI50 is < 10 nM.

**Q.** What about the TGI (SK-MEL-28 melanoma) of the same compound?
**A.** The TGI was < 14.9 nM.

**Q.** And the GI50 (SK-MEL-5 melanoma)?
**A.** Its GI50 is < 10 nM.

**Q.** And the TGI (SK-MEL-5 melanoma)?
**A.** Its TGI is < 10 nM.

**Q.** And the GI50 (SK-OV-3 ovarian)?
**A.** Its GI50 is < 10 nM.

**Q.** And the GI50 (SN12C renal)?
**A.** Its GI50 is < 10 nM.

**Q.** And the TGI (SN12C renal)?
**A.** Its TGI is 11300 nM.

**Q.** And the GI50 (SNB-75 CNS)?
**A.** Its GI50 is < 10 nM.

**Q.** What about the TGI (SNB-75 CNS) of the same compound?
**A.** The TGI was 33.4 nM.

**Q.** And the GI50 (SR leukemia)?
**A.** The GI50 was < 10 nM.

**Q.** And the TGI (SR leukemia)?
**A.** The TGI was < 10 nM.

**Q.** And the GI50 (SW-620 colon)?
**A.** The GI50 was < 10 nM.

**Q.** What about the TGI (SW-620 colon) of the same compound?
**A.** Its TGI is 10100 nM.

**Q.** What about the GI50 (T-47D breast) of the same compound?
**A.** The GI50 was < 10 nM.

**Q.** And the GI50 (TK-10 renal)?
**A.** Its GI50 is 26.7 nM.

**Q.** And the TGI (TK-10 renal)?
**A.** The TGI was 35600 nM.

**Q.** And the GI50 (U251 CNS)?
**A.** Its GI50 is < 10 nM.

**Q.** What about the TGI (U251 CNS) of the same compound?
**A.** The TGI was 11200 nM.

**Q.** What about the GI50 (UACC-257 melanoma) of the same compound?
**A.** The GI50 was < 10 nM.

**Q.** What about the TGI (UACC-257 melanoma) of the same compound?
**A.** Its TGI is < 10 nM.

**Q.** And the GI50 (UACC-62 melanoma)?
**A.** Its GI50 is < 10 nM.

**Q.** What about the TGI (UACC-62 melanoma) of the same compound?
**A.** The TGI was < 10.6 nM.
